Values quoted from earlier work, collected in US20190151045A1, “Device and Methods for Disinfecting Dental Lines” (Toppen Medical Dental LLC, priority 2017, published 2019).
Read-outs that look alike come from different tables or passages of the source.

Settings: dissipates into molecular oxygen, 0.5 mg/L ozone in dental water line

In the case of `O=[O+][O-]` [ozone], the “half-life (t1/2) of ozone” value is given as roughly 20 min and the “half-life (t1/2) of ozone” value (listed as Ozone) is given as “about 20 min”.
